The nature of the series: Pharmacokinetic studies in male Sprague-Dawley rats. The format is in vivo. The settings on record: rat; for clearance / half-life / Cmax: male, Sprague-Dawley, plasma; for half-life: read-out: t½. Here is the method:
Pharmacokinetic properties of select compounds were assessed in male Sprague-Dawley rats.
The non-GLP study was designed to investigate the pharmacokinetics of chosen compounds in plasma following an intravenous or oral dose administration to male Sprague Dawley rats. […]
Animals in the PO group were fasted overnight prior to dose administration. Food was returned following the collection of the 4-hour blood sample. Water was not withheld.
Immediately prior to dosing, the body weight of each animal was recorded. Doses (rounded to the nearest 0.001 mL) were calculated based on the pretreatment body weight (kg) and a dose volume of 2.5 mL/kg for intravenous administration and 5 mL/kg for oral administration. Intravenous formulations were administered via a jugular vein cannula. Immediately after dosing, the cannula was flushed with saline and the line was tied off. The oral dose was administered via a ball-tipped feeding needle. Dosing syringe volumes for administration were second-person verified prior to dosing and that volume along with the results for the concentration verification analysis were used to calculate the actual dose administered. Dosing syringes were weighed immediately prior to and immediately after dosing each animal as a gravimetric check.
Serial blood samples (approximately 200 μL per sample) were collected from each animal at 0.083 (IV dosing only), 0.25, 0.5, 1, 2, 4, 6 (PO dosing only), 8, 24, 32, 48, and 72 hours after dosing. Blood samples were collected into tubes containing K2EDTA via the non-dosing jugular-vein cannula (JVC), which was flushed with an approximately equal volume of saline following each collection.
Blood samples were stored on wet ice until processed to plasma by centrifugation (3500 rpm at 5° C. for 10 minutes) within 1 hour of collection. Plasma samples were transferred into matrix tubes and then stored in a −80° C. freezer.
Plasma samples and dose formulation samples were analyzed for the compounds of interest using liquid chromatography-tandem mass spectrometry (LC-MS/MS) methods. Pharmacokinetic parameter estimates were calculated from the individual animal plasma concentration-time data using the actual dose based on the analysis of the dosing formulations, nominal sampling times (all collections were within an acceptable range of target), and non-compartmental methods. The concentration-time data were analyzed to fit either an intravenous-bolus (IV) plasma analysis model (201) or extra-vascular (P0) dosing plasma analysis model (200) using the software WinNonlin Phoenix version 6.3 (Pharsight). The single-dose pharmacokinetic parameters assessed include, as appropriate: Cmax (observed peak or maximum concentration); Tmax (observed time of peak concentration); T1/2 (terminal half-life); Vz (volume of distribution based on the terminal phase); Vss (volume of distribution at steady state); AUCINF (area under the concentration-time curve computed from time zero to infinity); AUClast (area under the concentration-time curve computed from time zero to the time of the last quantifiable concentration); C0 (back-extrapolated concentration at time zero); CL (total body clearance); Vz/F (volume of distribution for extravascular administration based on the terminal phase); CL/F (total body clearance for extravascular administration); F % (bioavailability); and MRTlast (mean residence time).
Areas-under-the-plasma concentration-time curves (AUC) were estimated using the linear-log trapezoidal rule. The area through the time (Tlast) of the last observable concentration (Clast) is reported as AUClast. AUC extrapolated to infinity, (AUCINF) was estimated by adding AUClast and the ratio of Clast/λz, where λz is the terminal rate constant. Apparent terminal half-life (T1/2) was calculated as ln(2)/λz and determined using the slope of the log-linear terminal phase of the concentration-time curve, defined by a minimum of three plasma concentration-time points. […]

Each structure is given as a SMILES string. Where two headings read alike, the source gives them in different places.

What is called clearance is the volume of plasma or blood freed of the substance per unit of time. Lower therefore signals a low capacity for elimination. The Cmax is the highest concentration seen after dosing.

In the case of `COc1cc2nccc(Oc3ccc(NC(=O)C4(C(=O)Nc5ccc(F)cc5)CC4)cc3)c2cc1-c1ncco1` [Compound 45, 1-N′-(4-fluorophenyl)-1-N-[4-[7-methoxy-6-(1,3-oxazol-2-yl)quinolin-4-yl]oxyphenyl]cyclopropane-1,1-dicarboxamide], where the note is “IV (1 mg/kg)”, the clearance stood at 0.683 mL/min/kg and the half-life turned out to be 10.1 h. Under “PO (3 mg/kg)”, the Cmax was found to be 15.3 µM and the half-life stood at 5.7 h.

As for `CNC(=O)c1cc2c(Oc3ccc(NC(=O)C4(C(=O)Nc5ccc(F)cc5)CC4)cc3)ccnc2cc1OC` [Compound 8, 1-N′-(4-fluorophenyl)-1-N-[4-[7-methoxy-6-(methylcarbamoyl)quinolin-4-yl]oxyphenyl]cyclopropane-1,1-dicarboxamide], where the note is “IV (3 mg/kg)”, the clearance stood at 0.717 mL/min/kg and the half-life was found to be 5.4 h. Further, where the note is “PO (3 mg/kg)”, the peak level (Cmax) was 11.4 µM and the half-life came to 7.1 h.

In the case of `COc1cc2nccc(Oc3ccc(NC(=O)C4(C(=O)Nc5ccc(F)cc5)CC4)cc3)c2cc1-c1ncc[nH]1` [Compound 191, 1-N′-(4-Fluorophenyl)-1-N-[4-[6-(1H-imidazol-2-yl)-7-methoxyquinolin-4-yl]oxyphenyl]cyclopropane-1,1-dicarboxamide], where the note is “IV (3.0 mg/kg)”, the clearance is 1.05 mL/min/kg and the half-life was 9.9 h. Also, where the note is “PO (3.1 mg/kg)”, the highest level (Cmax) was 4.6 µM, the half-life amounted to 6.8 h and the F entry is given as “F = 38%”.

On to `CONC(=O)c1cc2c(Oc3ccc(NC(=O)C4(C(=O)Nc5ccc(F)cc5)CC4)cc3)ccnc2cc1OC` [Compound 17, 1-N′-(4-fluorophenyl)-1-N-[4-[7-methoxy-6-(methoxycarbamoyl)quinolin-4-yl]oxyphenyl]cyclopropane-1,1-dicarboxamide], for which, under “IV (3.0 mg/kg)”, the clearance amounted to 1.7 mL/min/kg and the half-life came to 3 h. In addition, where the note is “PO (3.2 mg/kg)”, the highest level (Cmax) was 3.4 µM, the half-life came to 4.5 h and the F result was “F = 46%”.

As to `COc1cc2nccc(Oc3ccc(NC(=O)C4(C(=O)Nc5ccc(F)cc5)CC4)cc3)c2cc1S(N)(=O)=O` [Compound 206, 1-N′-(4-Fluorophenyl)-1-N-[4-(7-methoxy-6-sulfamoylquinolin-4-yl)oxyphenyl]cyclopropane-1,1-dicarboxamide], under “IV (3 mg/kg)”, the clearance turned out to be 8.52 mL/min/kg and the half-life amounted to 2.1 h. In addition, where the note is “PO (3 mg/kg)”, the Cmax was 0.7 µM, the half-life came out at 2.9 h and the F entry is listed as “F = 37%”.

For the compound `CCNC(=O)c1cc2c(Oc3ccc(NC(=O)C4(C(=O)Nc5ccc(F)cc5)CC4)cc3)ccnc2cc1OC` [Compound 9, 1-N-[4-[6-(ethylcarbamoyl)-7-methoxyquinolin-4-yl]oxyphenyl]-1-N′-(4-fluorophenyl)cyclopropane-1,1-dicarboxamide], under “IV (3 mg/kg)”, the clearance was 2.53 mL/min/kg and the half-life came to 2.8 h. Where the note is “PO (3 mg/kg)”, the peak level (Cmax) was 3.9 µM, the half-life was 2.6 h and the F result is “F = 69%”.

Turning to `COc1cc2nccc(Oc3ccc(NC(=O)C4(C(=O)Nc5ccc(F)cc5)CC4)cc3)c2cc1C(N)=O` [Compound 7, 1-N-[4-(6-carbamoyl-7-methoxyquinolin-4-yl)oxyphenyl]-1-N′-(4-fluorophenyl)cyclopropane-1,1-dicarboxamide], for the setting “IV (1 mg/kg)”, the clearance turned out to be 1.48 mL/min/kg and the half-life is 3.1 h. Moreover, under “PO (3 mg/kg)”, the Cmax is 8.8 µM and the half-life turned out to be 7.3 h.
